Measurements as given in PMC5944259 (Evidence-based Complementary and Alternative Medicine : eCAM, 2018).
Like-named read-outs stand apart in the source and are kept apart here. Each block holds one molecule with its values, some of them ahead of it.

Experiments:
[1] = cited from earlier work
Acetyl-CoA carboxylase 1 = target: T1, Acetyl-CoA carboxylase 1 (Homo sapiens, UniProt Q13085); assay: SPR assay ACC1; type: binding; details: for Offset / Rmax / χ^2: ACC1
T1 construct: purchased Proteintech (Shanghai)
Protocol: In the SPR test, the target proteins were first combined with the CM5 chip. After correction through standard solutions, a series of different concentrations of molecules (0, 2, 4, 8, 16, 32, 64, and 128 μmol/l) were tested for their binding to the protein. Finally, the affinity between the protein and molecule was determined by an array of parameters, such as the Kd values, Rmax, offset, and χ^2.

[2] = target: T2, Mammalian target of rapamycin (Homo sapiens, UniProt P42345); assay: Enzyme activity test mTOR (Lance ultra); type: biochemical
T2 construct: purchased Proteintech (Shanghai)
Protocol: (§1) As there were some kinase proteins in our protein database with different characteristics to other proteins, we used an enzyme activity test to validate the real interactions between the protein and molecule.
(§2) Selected pairs of protein and molecule participated in enzyme activity test, while electrophoretic mobility shirt assay (EMSA) and Lance ultra were conducted in an experiment with […] (100, 50, 25, 12.5, 6.25, 3.12, 1.56, 0.78, and 0.39 μmol/l). Finally, the IC50 (nM) value was used to assess the ability of a molecule to act or inhibit the protein.

[3] = database annotation in words, no reference given; cited from earlier work
[4] = target: T3, Superoxide dismutase [Mn] (Homo sapiens, UniProt P04179); assay: SPR assay SOD2; type: binding
T3 construct: purchased Sino Biological (Shanghai)
T3 sequence (P04179 25-222): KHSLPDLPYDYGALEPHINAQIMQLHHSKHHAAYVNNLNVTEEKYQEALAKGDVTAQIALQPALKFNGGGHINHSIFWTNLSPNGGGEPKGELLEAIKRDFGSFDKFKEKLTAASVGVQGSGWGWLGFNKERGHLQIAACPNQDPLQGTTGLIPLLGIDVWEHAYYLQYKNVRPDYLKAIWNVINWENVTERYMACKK

[5] = database annotation in words, no reference given; cited from earlier work; remark: listed apart in the source
[6] = target: T4, Protein kinase C, beta type (Homo sapiens, UniProt P05771); assay: Enzyme activity test PKC-B (EMSA); type: biochemical
T4 construct: purchased Proteintech (Shanghai)
T4 sequence (P05771 whole entry): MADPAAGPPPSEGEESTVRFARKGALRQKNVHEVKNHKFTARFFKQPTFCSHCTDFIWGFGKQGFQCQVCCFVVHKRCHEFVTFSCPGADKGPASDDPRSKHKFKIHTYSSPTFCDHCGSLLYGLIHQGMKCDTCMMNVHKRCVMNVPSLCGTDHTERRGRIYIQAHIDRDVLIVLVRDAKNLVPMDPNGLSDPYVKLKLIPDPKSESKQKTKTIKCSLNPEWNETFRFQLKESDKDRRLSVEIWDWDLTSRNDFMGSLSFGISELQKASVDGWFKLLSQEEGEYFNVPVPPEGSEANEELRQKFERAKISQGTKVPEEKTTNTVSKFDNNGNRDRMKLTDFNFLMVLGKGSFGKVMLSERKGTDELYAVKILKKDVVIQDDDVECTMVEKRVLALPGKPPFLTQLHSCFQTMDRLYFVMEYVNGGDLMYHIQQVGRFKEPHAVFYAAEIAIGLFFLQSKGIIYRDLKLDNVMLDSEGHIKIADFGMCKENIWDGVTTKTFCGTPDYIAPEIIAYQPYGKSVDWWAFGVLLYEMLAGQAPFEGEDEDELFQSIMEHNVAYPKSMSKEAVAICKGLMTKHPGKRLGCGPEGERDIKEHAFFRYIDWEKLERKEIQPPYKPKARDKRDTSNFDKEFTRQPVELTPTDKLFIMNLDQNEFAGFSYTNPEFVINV
Protocol: as §1, §2

[7] = target: T5, Rho-associated protein kinase 1 (Homo sapiens, UniProt Q13464); assay: Enzyme activity test ROCK1 (EMSA); type: biochemical
T5 construct: purchased Proteintech (Shanghai)
T5 sequence (Q13464 whole entry): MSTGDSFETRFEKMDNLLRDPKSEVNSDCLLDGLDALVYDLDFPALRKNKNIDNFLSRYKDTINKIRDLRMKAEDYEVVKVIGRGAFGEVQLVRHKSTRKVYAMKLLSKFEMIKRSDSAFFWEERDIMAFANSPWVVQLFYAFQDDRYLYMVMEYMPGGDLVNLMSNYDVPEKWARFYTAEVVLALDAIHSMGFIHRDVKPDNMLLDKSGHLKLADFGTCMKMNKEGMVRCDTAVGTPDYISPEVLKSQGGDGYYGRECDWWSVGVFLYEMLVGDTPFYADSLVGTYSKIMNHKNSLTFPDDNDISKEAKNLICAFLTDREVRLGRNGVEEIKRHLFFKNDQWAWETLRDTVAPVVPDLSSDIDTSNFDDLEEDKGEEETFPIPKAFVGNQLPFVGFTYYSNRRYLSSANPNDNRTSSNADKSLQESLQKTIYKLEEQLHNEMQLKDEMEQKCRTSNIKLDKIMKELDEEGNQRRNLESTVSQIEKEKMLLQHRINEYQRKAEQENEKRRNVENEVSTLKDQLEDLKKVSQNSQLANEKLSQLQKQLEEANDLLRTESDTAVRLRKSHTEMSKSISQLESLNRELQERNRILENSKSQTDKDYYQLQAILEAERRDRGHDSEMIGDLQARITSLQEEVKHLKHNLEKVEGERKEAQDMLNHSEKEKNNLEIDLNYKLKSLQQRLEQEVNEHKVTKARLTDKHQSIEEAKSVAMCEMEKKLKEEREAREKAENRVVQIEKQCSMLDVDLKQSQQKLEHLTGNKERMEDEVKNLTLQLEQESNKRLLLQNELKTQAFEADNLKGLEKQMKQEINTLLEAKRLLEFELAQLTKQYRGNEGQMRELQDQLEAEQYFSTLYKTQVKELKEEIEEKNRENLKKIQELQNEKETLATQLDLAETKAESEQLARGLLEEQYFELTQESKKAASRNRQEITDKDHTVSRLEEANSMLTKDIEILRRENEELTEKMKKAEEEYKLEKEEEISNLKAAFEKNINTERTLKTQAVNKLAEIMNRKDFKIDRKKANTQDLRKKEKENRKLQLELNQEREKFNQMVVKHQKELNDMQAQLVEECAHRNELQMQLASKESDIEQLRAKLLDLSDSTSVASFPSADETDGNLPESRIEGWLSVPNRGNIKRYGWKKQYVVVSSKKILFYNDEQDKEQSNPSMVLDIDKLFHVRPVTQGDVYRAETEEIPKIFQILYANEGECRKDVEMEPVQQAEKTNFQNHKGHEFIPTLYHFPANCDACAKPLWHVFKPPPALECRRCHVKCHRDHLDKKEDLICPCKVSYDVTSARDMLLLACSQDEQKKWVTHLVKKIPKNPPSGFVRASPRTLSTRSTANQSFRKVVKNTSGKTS
Protocol: as §1, §2

Molecule: CC(C)(O)[C@@H]1CC[C@](C)([C@H]2[C@@H](O)C[C@@]3(C)[C@@H]4C[C@H](O[C@@H]5O[C@H](CO)[C@@H](O)[C@H](O)[C@H]5O)[C@H]5C(C)(C)[C@@H](O[C@@H]6OC[C@@H](O)[C@H](O)[C@H]6O)CC[C@@]56C[C@@]46CC[C@]23C)O1 [Astragaloside IV]
- absorbed in blood after the oral administration of GDC [1]: could be absorbed in blood
- Kd (Acetyl-CoA carboxylase 1): 92.5 µM
- Offset (Acetyl-CoA carboxylase 1; SPR): 0.2424 RU
- Rmax (Acetyl-CoA carboxylase 1; SPR): 7.856 RU
- χ^2 (Acetyl-CoA carboxylase 1; SPR): 0.0243 RU^2
- IC50 [2]: > 10 µM
- 作用药理 (pharmacological action) [3]: 诱导TNF-α分泌，降低直接作用+作用于肝糖调节酶+通过上调Sarco/内质网Ca2 + -ATP酶2的表达。抑制足细胞介导的细胞凋亡的内质网应激

Molecule: C[C@@H]1O[C@@H](OC[C@H]2O[C@@H](Oc3c(-c4ccc(O)c(O)c4)oc4cc(O)cc(O)c4c3=O)[C@H](O)[C@@H](O)[C@@H]2O)[C@H](O)[C@H](O)[C@H]1O [Rutin]
- absorbed in blood after the oral administration of GDC [1]: could be absorbed in blood

- Offset ([4]; SOD2): −3.611 RU
- Rmax ([4]; SOD2): 14.3 RU
- χ^2 ([4]; SOD2): 2.11 RU^2
- Kd ([4]; SOD2 on CM5 chip): 5.08 µM
Molecule: COc1c(O)cc(O)c2c(=O)cc(-c3ccccc3)oc12 [Wogonin]

Molecule: OC[C@H]1O[C@@H](O[C@@H]2OC=C[C@H]3[C@H](O)[C@@H]4O[C@]4(CO)[C@@H]23)[C@H](O)[C@@H](O)[C@@H]1O [catalpol / catalpinoside]
- stability remark (acid, base, high temperature) [5]: 酸碱高温下可分解，分解后变黑
- 作用药理 (pharmacological action) [3]: 有降糖作用

Molecule: stachyose
- 作用药理: side effect [3]: 胀气副作用，炮制可减少水苏糖的量

- Offset (Acetyl-CoA carboxylase 1; SPR): −0.2651 RU
- Rmax (Acetyl-CoA carboxylase 1; SPR): 2.204 RU
- χ^2 (Acetyl-CoA carboxylase 1; SPR): 0.0962 RU^2
- Kd (Acetyl-CoA carboxylase 1; SPR, ACC1 on CM5 chip, read-out: Kd): 13.6 µM
- IC50 [6]: > 10 µM
- IC50 [7]: > 10 µM
Molecule: COC(=O)C1=CO[C@@H](O[C@@H]2O[C@H](CO)[C@@H](O)[C@H](O)[C@H]2O)[C@@H]2[C@H](C)O[C@@H](O)C[C@H]12 [Morroniside]
- absorbed in blood after the oral administration of GDC [1]: could be absorbed in blood

Molecule: COc1cc(C(=O)OCCCCNC(=N)N)cc(OC)c1O [leonurine]
- 作用药理 (pharmacological action) [3]: 抗血小板作用

Molecule: astragalosideⅤ
- 作用药理 (pharmacological action) [3]: 阻碍羧甲基赖氨酸、戊糖苷形成，抑制糖尿病视网膜病变、神经病变进程
